Several values for one entry are separate records, joined by “and”; a condition that tells them apart may be missing. Equal values may be shown once. Entries after “also recorded” stand apart in the source; their conditions may differ. Read-outs that look alike come from different tables or passages of the source.

Data set [1] deals with T1, α4β3γ2 GABAA receptor isoform (Homo sapiens, UniProt P18507+P28472+P48169).
T1 construct: expressed in transfected cells; host or cells: HEK-293T, transient transfection
T1 sequence (P48169 36-554): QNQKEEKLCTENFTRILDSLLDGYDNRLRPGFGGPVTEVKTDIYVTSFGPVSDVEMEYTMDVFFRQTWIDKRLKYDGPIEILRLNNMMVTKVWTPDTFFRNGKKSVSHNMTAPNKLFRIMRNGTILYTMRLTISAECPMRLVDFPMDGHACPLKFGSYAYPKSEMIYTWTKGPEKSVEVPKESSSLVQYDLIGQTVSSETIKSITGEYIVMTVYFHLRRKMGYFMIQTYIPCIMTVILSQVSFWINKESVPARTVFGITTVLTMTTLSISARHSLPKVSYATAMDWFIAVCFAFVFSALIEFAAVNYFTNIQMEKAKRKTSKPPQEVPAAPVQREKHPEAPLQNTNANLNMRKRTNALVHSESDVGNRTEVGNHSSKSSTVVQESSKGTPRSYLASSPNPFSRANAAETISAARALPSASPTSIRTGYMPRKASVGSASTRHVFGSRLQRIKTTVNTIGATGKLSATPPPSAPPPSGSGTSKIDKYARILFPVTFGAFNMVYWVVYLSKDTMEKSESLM
T1 sequence (P28472 26-473): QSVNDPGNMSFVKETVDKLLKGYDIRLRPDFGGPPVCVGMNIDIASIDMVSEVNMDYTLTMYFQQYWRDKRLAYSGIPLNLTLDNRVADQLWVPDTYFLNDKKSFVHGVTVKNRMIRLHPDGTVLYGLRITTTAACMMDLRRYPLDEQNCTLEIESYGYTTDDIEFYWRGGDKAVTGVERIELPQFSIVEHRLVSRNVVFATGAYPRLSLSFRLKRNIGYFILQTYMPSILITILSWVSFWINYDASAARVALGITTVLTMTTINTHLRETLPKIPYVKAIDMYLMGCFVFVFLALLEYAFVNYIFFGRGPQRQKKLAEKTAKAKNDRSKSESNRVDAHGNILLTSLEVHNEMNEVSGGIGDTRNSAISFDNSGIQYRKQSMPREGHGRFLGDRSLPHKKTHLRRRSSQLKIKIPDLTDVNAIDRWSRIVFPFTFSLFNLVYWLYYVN
T1 sequence (P18507 40-475): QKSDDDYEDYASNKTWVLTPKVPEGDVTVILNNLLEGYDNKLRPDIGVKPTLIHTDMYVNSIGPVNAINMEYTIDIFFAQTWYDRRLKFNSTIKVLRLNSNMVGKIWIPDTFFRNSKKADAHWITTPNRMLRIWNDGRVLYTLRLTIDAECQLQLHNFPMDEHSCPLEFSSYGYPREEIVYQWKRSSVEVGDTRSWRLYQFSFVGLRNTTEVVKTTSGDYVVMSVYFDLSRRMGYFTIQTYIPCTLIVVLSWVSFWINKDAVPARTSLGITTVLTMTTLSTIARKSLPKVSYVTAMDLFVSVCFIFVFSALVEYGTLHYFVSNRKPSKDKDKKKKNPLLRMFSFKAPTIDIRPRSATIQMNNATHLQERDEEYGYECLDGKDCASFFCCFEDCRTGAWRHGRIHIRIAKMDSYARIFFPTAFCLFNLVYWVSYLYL
As to the kind of experiment: Whole-cell patch clamp, transfected HEK-293T cells. Type of data set: cell-based, rat or human. As for the experimental part: The addition of GABA to […] activates the recombinant expressed GABAA receptors, creating an ion movement through the ion channel in the GABAA receptor. The electrical current generated by the movement of chloride ions into the cells can be quantified.
HEK-293T cells were transiently transfected with rat or human GABAA receptor subunits. Whole-cell patch clamp recording was performed at −50 mV unless otherwise indicated. Test compounds was diluted from a freshly made stock in DMSO, GABA was prepared from a frozen stock. For each experiment GABA or GABA+a test compound was applied for 5 seconds, and the electrical current generated by the movement of chloride ions into the cells was measured and recorded as a trace of current versus time.
Compounds described herein (e.g., NTP-2014) were tested at high and low GABA concentrations against multiple GABAA receptor isoforms (e.g., α1β3γ2, α2β3 γ2, α3β3γ2, α3β3γ2, α4β3γ2, α5β3γ2, α6β3γ2). […] NTP-2014 inhibits the currents in the parasynaptic α4 GABAA receptor isoform in GABAergic interneurons. […]
A general note: In patch-clamp work, channel activity is measured electrically.

In a further data set the test system is Male CD-1 mice. Nature of the data set: Chung (SNL) neuropathic pain study in mice. The format is in vivo, mouse. The conditions noted are these: for Other overt toxicity: in vivo, ip; for Reversal of tactile hypersensitivity: mice, i.p., SNL. The text has this:
Male CD-1 mice (25-35 g, Charles River) were used for all studies. Mice were housed in groups of five in Plexiglas chambers with food and water available ad libitum. All animals were maintained on a 12 hr light/dark cycle (lights on at 7:00 AM) in a temperature- and humidity-controlled animal colony. The health status of the animals used in this study was examined on arrival. Only animals in good health were acclimatized to laboratory conditions and used in the study. The acclimation period to the vivarium was a minimum of 7 days. All animal experiments were performed under an approved protocol in accordance with institutional guidelines and in accordance with the Guide for the Care and Use of Laboratory Animals as adopted and promulgated by the National Institutes of Health.
NTP has provided adequate amounts of NTP-2014 and NTP-2026 along with detailed instructions for preparing injection solutions. Gabapentin (Gallipot, St. Paul, Minn.) was dissolved in physiological saline. Injections were made using a 1-mL syringe with a 30-gauge needle at a volume of 10 ml/kg body weight. Animal body weights were measured prior to surgery and then on the morning of Day 7 (post-SNL testing). For i.p. drug administration, each mouse was firmly grasped by the nape of the neck and the tail was tucked between the last two fingers and palm of the technician's hand. The back of the mouse iwasarched slightly backwards exposing the abdominal region. The needle was inserted through the skin and abdominal musculature into the peritoneal cavity just off of the midline. Mice are immediately returned to the testing cage until behavioral testing.
NTP2026 (56, 100 and 180 mg/kg, i.p.); NTP 2014 (32, 56 and 100 mg/kg, i.p.); Gabapentin (100 mg/kg, i.p.); Vehicle Control (10% TPGS in benzoate buffer, i.p.).
SNL surgeries were performed based on the procedures described for rats (Kim and Chung, 1992) and modified for mice (Wang et al., 2001). Anesthesia was maintained with 0.5% halothane in O2 and body temperature was maintained using a heated water blanket. After surgical preparation of the mice, a 1-cm paraspinal incision was made at the level L4-S2. The L5 and L6 spinal nerves were exposed and tightly ligated using a 4-0 silk suture. The ligation was made distal to the dorsal root ganglion but before the fibers joined the sciatic nerve. The incisions were then closed, and animals are allowed to recover. […] Mechanical thresholds were determined by measuring the paw withdrawal threshold to probing with a series of calibrated von Frey filaments as described below.
Non-noxious sensory thresholds of the mice were determined by paw withdrawal […] to probing with a series of calibrated (0.02-2.34 gm on a logarithmic scale) von Frey filaments (“up and down” method) according to Chaplan et al. (1994) and analyzed using a Dixon (1980) nonparametric test. Results are expressed as the mean withdrawal thresholds. Baseline latencies/thresholds were determined prior to surgery, on the morning of Day 7, and then between 20-60 minutes post dosing with the test drugs. The post-drug time corresponds to the time of maximal activity for these compounds in the tail-flick assay.

Data set [2] relates to GABAA-IPSCs, hippocampal slices (CA1 pyramidal cell layer). As to the kind of experiment: In vitro hippocampal slice recordings of miniature and spontaneous IPSCs. The format is cell-based. As to conditions: two experiments. The method, then:
Ion flux in neuronal cells was measured using standard techniques. Kandel and Schwartz Principles of Neural Science 2nd Edition (1985), see, e.g., pages 128-131. Recording was performed in vitro in hippocampal slices (CA1 pyramidal cell layer). For recording GABAA-IPSCs, glutamatergic and GABAB transmission was blocked by adding DNOX (50 μM), AP-5 (50 μM), and SCH50911 ([…]) into the medium. The intracellular solution comprised CsCl and OX314.

For `CCCCNc1cc(C(=O)O)cc(S(N)(=O)=O)c1Oc1ccccc1` [Bumetanide, reference compound], the “Effect on α4β3γ2 GABAA receptor isoform” value in data set [1] (up to a concentration of 100 μM, 100 μM GABA) is reported as “no effect; also recorded: no-effect”.

For orientation: IC50 means the midpoint of a concentration-inhibition curve. In general, EC50 refers to the midpoint of the concentration-response curve. Take `CCCCN(CCCC)c1cc(C(=O)O)cc(S(N)(=O)=O)c1Oc1ccccc1` [NTP-2014, 3-Aminosulfonyl-5-N,N-dibutylamino-4-phenoxybenzoic acid]: the Other overt toxicity entry was “high dose group (180 mg/kg). No other” in the data set with Male CD-1 mice (male, CD-1, mouse) and “No other overt toxicity” in the data set on Male CD-1 mice (mouse). The “Reversal of tactile hypersensitivity” value with Male CD-1 mice is reported as “dose-dependent reversal of tactile hypersensitivity; also recorded: effective analgesic effects; also recorded: Dose-dependent, very significant”. For the same molecule, in data set [2] (from 257 ms (FIG. 34A) and from 535 ms (FIG. 34B)), the “Mean interval between inhibitory events, spontaneous IPSCs, with NTP-2014” value is 205 ms and 401 ms. In data set [2] (from 315 ms (FIG. 35A) and from 361 ms (FIG. 35B)), the “Mean interval between inhibitory events, miniature IPSCs, with NTP-2014” value was 162 ms and 160 ms. Moreover, the IC50 is 16 µM in data set [1] (100 μM GABA (FIG. 42), read-out: IC50, inhibition of α4β3γ2 GABAA receptor isoform) and 10 to 30 µM in data set [1] (read-out: IC50, receptors containing the α4 subunit). Besides, the “Effect on currents, α4 GABAA receptor isoform” value in data set [1] (1, 10, 100 μM GABA) is “inhibiting currents; also recorded: inhibited by NTP-2014 at higher GABA concentrations, but unaffected at lower GABA concentrations; also recorded: inhibition of currents”. Besides, the EC50 in data set [1] (FIG. 41C, read-out: EC50 in α4 containing GABAA receptor isoforms) worked out at 20.2 µM.

In the case of `CCCCNc1cc(C(=O)N(C)CCCN(C)C)cc(S(N)(=O)=O)c1Oc1ccccc1` [NTP-2026, N-(3-(Dimethylamino)propyl)-N-methyl 3-Aminosulfonyl-5-N-butylamino-4-phenoxybenzamide], the “Reversal of tactile hypersensitivity” value with Male CD-1 mice is on record as “dose-dependent reversal of tactile hypersensitivity; also recorded: Dose-dependent, significant reversal of”.

These data come from patent US9682928B2 (NeuroPro Therapeutics, Inc., priority 2009, dated 2017).
